Measured values: patent publication US10584121B2 (Merck Sharp & Dohme Corp., priority 2015, dated 2020)

Experiment: Rat PK: plasma clearance after PO and IV dosing
Type: in vivo
Conditions: fasted male Wistar Han rats, IV 0.5 mg/kg or 0.05 mg/kg, 20/60/20 DMSO/PEG400/H2O; for clearance: rat, plasma, read-out: Rat plasma clearance (Clp)
Procedure: Experimental Procedure for Collecting Rat PK:
Pharmacokinetic parameters were determined following PO and IV dosing at 1 mg/kg and 0.5 mg/kg or 0.05 mg/kg respectively in fasted male Wistar Han rats. Compounds were formulated for both PO and IV dosing in 20/60/20 DMSO/PEG400/H2O. Plasma samples obtained from dosed animals were acidified by adding 30 μL of 2% formic acid to 100 μL of plasma to stabilize potential acyl-glucuronide metabolites. Sample clean-up was carried out by means of a single step protein precipitation technique by adding 200 μL of acetonitrile to 50 μL aliquots of individual subject samples. Samples were mixed by vortex for homogeneity and then subjected to centrifugation at 3500 rpm for 10 min. The supernatant (200 μL) was collected and an aliquot was injected into the LC-MS/MS for analysis. Pharmacokinetic parameters were calculated using established non-compartmental methods. The area under the plasma concentration versus time curve (AUC) was determined using the Watson software (version 7.3) or Phoenix Professional (version 6.2.1), with linear trapezoidal interpolation in the ascending slope and logarithmic trapezoidal interpolation in the descending slope. The portion of the AUC from the last measurable concentration to infinity was estimated from the equation, Ct/kel, where Ct represents the last measurable concentration and kel is the elimination rate constant. The latter was determined from the concentration versus time curve by linear regression at the terminal phase of the semi-logarithmic plot.

SMILES | clearance [mL/min/kg] | Rat plasma clearance (Clp) [mL/min/kg]
O=C(O)c1ccc(-c2nn(C(=O)c3c(C4(C(F)F)CC4)ccc(F)c3Cl)c3cccnc23)c(F)c1 [Example 1H, 4-(1-(2-chloro-6-(1-(difluoromethyl)cyclopropyl)-3-fluorobenzoyl)-1H-pyrazolo[4,3-b]pyridin-3-yl)-3-fluorobenzoic acid] | 16 | –
O=C(O)c1ccc(-c2nn(C(=O)c3c(Cl)cccc3C3(CF)CC3)c3cccnc23)c(F)c1 [Example 1E, 4-(1-(2-chloro-6-(1-(fluoromethyl)cyclopropyl)benzoyl)-1H-pyrazolo[4,3-b]pyridin-3-yl)-3-fluorobenzoic acid] | 16 | –
O=C(O)c1ccc(-c2nn(C(=O)c3c(Cl)cccc3C(F)(F)F)c3cccnc23)c(F)c1 [historical compound, reference compound] | – | 76
Cc1cccc(C2(C(F)(F)F)CC2)c1C(=O)n1nc(-c2ccc(C(=O)O)cc2F)c2ncccc21 [Example 1C, 3-fluoro-4-(1-(2-methyl-6-(1-(trifluoromethyl)cyclopropyl)benzoyl)-1H-pyrazolo[4,3-b]pyridin-3-yl)benzoic acid] | 21 | –
O=C(O)c1ccc(-c2nn(C(=O)c3c(C(F)F)cccc3C3(C(F)(F)F)CC3)c3cccnc23)c(F)c1 [Example 1G, 4-(1-(2-(difluoromethyl)-6-(1-(trifluoromethyl)cyclopropyl)benzoyl)-1H-pyrazolo[4,3-b]pyridin-3-yl)-3-fluorobenzoic acid] | 5 | –
O=C(O)c1ccc(-c2cn(C(=O)c3c(Cl)cccc3C3(C(F)(F)F)CC3)c3cccnc23)c(F)c1 [Example 1B, 4-(1-(2-chloro-6-(1-(trifluoromethyl)cyclopropyl)benzoyl)-1H-pyrrolo[3,2-b]pyridin-3-yl)-3-fluorobenzoic acid] | 5 | –
O=C(O)c1ccc(-c2nn(C(=O)c3c(Cl)cccc3C3(C(F)(F)F)CC3)c3cccnc23)c(F)c1 [Example 1A, 4-(1-(2-chloro-6-(1-(trifluoromethyl)cyclopropyl)benzoyl)-1H-pyrazolo[4,3-b]pyridin-3-yl)-3-fluorobenzoic acid] | 6 | –
O=C(O)c1ccc(-c2nn(C(=O)c3c(Cl)cccc3C3(C(F)F)CC3)c3cccnc23)c(F)c1 [Example 1D, 4-(1-(2-chloro-6-(1-(difluoromethyl)cyclopropyl)benzoyl)-1H-pyrazolo[4,3-b]pyridin-3-yl)-3-fluorobenzoic acid] | 10 | –
O=C(O)c1ccc(-c2cn(C(=O)c3c(Cl)cccc3C3(C(F)F)CC3)c3cccnc23)c(F)c1 [Example 1J] | 5 | –
O=C(O)c1ccc(-c2nn(C(=O)c3c(C4(C(F)(F)F)CC4)ccc(F)c3Cl)c3cccnc23)c(F)c1 [Example 1F, 4-(1-(2-chloro-3-fluoro-6-(1-(trifluoromethyl)cyclopropyl)benzoyl)-1H-pyrazolo[4,3-b]pyridin-3-yl)-3-fluorobenzoic acid] | 8 | –
Cc1c(F)ccc(C2(C(F)(F)F)CC2)c1C(=O)n1nc(-c2ccc(C(=O)O)cc2F)c2ncccc21 [Example 1I, 3-fluoro-4-(1-(3-fluoro-2-methyl-6-(1-(trifluoromethyl)cyclopropyl)benzoyl)-1H-pyrazolo[4,3-b]pyridin-3-yl)benzoic acid] | 18 | –
